Data from patent US4526989A, “1,4-Bis (substituted-amino)-5,8-dihydroxy-anthraquinones and leuco bases thereof” (priority 1979, dated 1985).
Several values for one entry are separate records, joined by “and”; a condition that tells them apart may be missing. Equal entries are not always repeated. Where two headings read alike, the source gives them in different places.

Legend:
[1] = tested on: lymphocytic leukemia P388; assay: Lymphocytic leukemia P388 test (intraperitoneal administration); format: in vivo, DBA/2 mice
Method in brief: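 DBA/2 mice, single sex, 5-6 per group, inoculated i.p. with 10^6 P388 leukemia cells. Compounds given i.p. at various doses on days 1, 5 and 9; survival followed 30 days, reporting median survival time and treated/control (T/C) survival ratio.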

[2] = tested on: lymphocytic leukemia P388; assay: Lymphocytic leukemia P388 test (oral drug administration); format: in vivo, DBA/2 mice; settings: for T/C × 100: efficacy ≥125%
Protocol: The animals used are DBA/2 mice all of one sex, weighing a minimum of 17 g. and all within a 3 gram weight range. There are 5 or 6 animals per test group. The tumor transplant is by intraperitoneal injection of 0.1 ml. of dilute ascitic fluid containing 10^6 cells of lymphocytic leukemia P388. The test compounds are administered intraperitoneally on days one, 5 and 9 (relative to tumor inoculation) at various doses. The animals are weighed and survivors are recorded on a regular basis for 30 days. The median survival time and the ratio of survival time for treated (T)/control (C) animals are calculated. […] The results of this test with representative compounds of the present invention appear in Table I. The criterion for efficacy is T/C×100≥125%.
The procedure used is the same as for the previously described test for lymphocytic leukemia P388 except that the test compounds are administered orally at various doses rather than intraperitoneally. The criterion for efficacy is T/C×100≥125%.

[3] = tested on: melanotic melanoma B16; assay: Melanotic Melanoma B16 test; format: in vivo, C57BC/6 mice
Method in brief: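 C57BC/6 mice (10 per group) were implanted i.p. with B16 melanoma homogenate, then dosed i.p. on days 1–9 at various doses.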

[4] = tested on: Ridgway Osteogenic Sarcoma; assay: Ridgway Osteogenic Sarcoma; format: in vivo, AKD2 F1 /J mice; settings: for % Inhibition Tumor Growth / % Showing 50% Tumor Regression / No. Without Tumors/No. Survivors / Tumor: 7 days after therapy stopped; for Median Survival / T/C: 63 days after therapy stopped
Protocol: The animals used are AKD2 F1 /J mice, all of the same sex, weighing a minimim of 17 g. and all within a three-gram weight range. There are normally 8 animals per test group. The tumor is administered subcutaneously by trocar as five 2-mm. fragments per mouse. The test compounds are administered intraperitoneally every 4 days for a total of 6 inoculations beginning on day 15 (relative to tumor inoculation) at various doses. The animals are weighed and survivors are recorded on a regular basis for 90 days. The regression of tumors is recorded in all test animals.

[5] = Mus musculus, P388, ip, read-out: T/C × 100
[6] = 60 mg./kg., administered intraperitoneally, positive control
[7] = 25 mg./kg. i.p., days 1, 5 and 9
[8] = 50 mg./kg. i.p., days 1, 5 and 9
[9] = 100 mg./kg. i.p., days 1, 5 and 9
[10] = 200 mg./kg. i.p., days 1, 5 and 9
[11] = Mus musculus, P388, ip, 25 mg./kg. i.p., days 1, 5 and 9, efficacy ≥125%, read-out: T/C × 100
[12] = Mus musculus, P388, ip, 50 mg./kg. i.p., days 1, 5 and 9, efficacy ≥125%, read-out: T/C × 100
[13] = Mus musculus, P388, ip, 100 mg./kg. i.p., days 1, 5 and 9, efficacy ≥125%, read-out: T/C × 100
[14] = 6 mg./kg. i.p., days 1 through 9
[15] = 25 mg./kg. i.p., days 1 through 9
[16] = 50 mg./kg. i.p., days 1 through 9
[17] = Mus musculus, ip, 6 mg./kg. i.p., days 1 through 9, efficacy ≥125%, read-out: T/C × 100
[18] = Mus musculus, ip, 25 mg./kg. i.p., days 1 through 9, efficacy ≥125%, read-out: T/C × 100
[19] = Mus musculus, ip, 50 mg./kg. i.p., days 1 through 9, efficacy ≥125%, read-out: T/C × 100
[20] = 12 mg./kg. i.p., days 1, 5 and 9
[21] = Mus musculus, P388, ip, 12 mg./kg. i.p., days 1, 5 and 9, efficacy ≥125%, read-out: T/C × 100

## O=c1[nH]cc(F)c(=O)[nH]1 [5-Fluorouracil, reference compound]
[1]; Mus musculus, P388, ip, 40 mg./kg. injection, positive control, efficacy ≥125%, read-out: T/C × 100
  response vs control in vivo at 40 mg/kg: 164% and 155%
[1]; [5]
  response vs control in vivo at 60 mg/kg: 200%
[2]; [6]
  Median Survival Time: 19.0 days and 20.0 days
  T/C × 100: 190% and 174%
[3]; Mus musculus, ip, 60 mg./kg. injection, positive control, efficacy ≥125%, read-out: T/C × 100
  response vs control in vivo at 60 mg/kg: 128%

## CC(CNC1=C2C(=O)c3c(O)ccc(O)c3C(=O)C2=C(NCC(C)N(C)C)CC1)N(C)C (stereo not drawn) [Leuco-1,4-bis[2-dimethylaminopropylamino]-5,8-dihydroxyanthraquinone]
[1]; 12.5 mg./kg. i.p., days 1, 5 and 9
  Median Survival Time: 11.0 days
[1]; [7]
  Median Survival Time: 13.0 days
[1]; [8]
  Median Survival Time: 14.0 days
[1]; [9]
  Median Survival Time: 15.0 days
[1]; [10]
  Median Survival Time: 18.0 days
[1]; [5]
  response vs control in vivo at 200 mg/kg: 200%
[1]; Mus musculus, P388, ip, 12.5 mg./kg. i.p., days 1, 5 and 9, efficacy ≥125%, read-out: T/C × 100
  response vs control in vivo at 12.5 mg/kg: 122%
[1]; [11]
  response vs control in vivo at 25 mg/kg: 144%
[1]; [12]
  response vs control in vivo at 50 mg/kg: 156%
[1]; [13]
  response vs control in vivo at 100 mg/kg: 167%
[3]; [14]
  Median Survival Time: 19.5 days
[3]; 12.5 mg./kg. i.p., days 1 through 9
  Median Survival Time: 20.5 days
[3]; [15]
  Median Survival Time: 24.5 days
[3]; [16]
  Median Survival Time: 28.5 days
[3]; 100 mg./kg. i.p., days 1 through 9
  Median Survival Time: 21.0 days
[3]; [17]
  response vs control in vivo at 6 mg/kg: 115%
[3]; Mus musculus, ip, 12.5 mg./kg. i.p., days 1 through 9, efficacy ≥125%, read-out: T/C × 100
  response vs control in vivo at 12.5 mg/kg: 121%
[3]; [18]
  response vs control in vivo at 25 mg/kg: 144%
[3]; [19]
  response vs control in vivo at 50 mg/kg: 168%
[3]; Mus musculus, ip, 100 mg./kg. i.p., days 1 through 9, efficacy ≥125%, read-out: T/C × 100
  response vs control in vivo at 100 mg/kg: 124%

## CCN(CC)CCNC1=C2C(=O)c3c(O)ccc(O)c3C(=O)C2=C(NCCN(CC)CC)CC1 [Leuco-1,4-bis[(2-diethylaminoethyl)amino]-5,8-dihydroxyanthraquinone]
[1]; [20]
  Median Survival Time: 12.0 days
[1]; [7]
  Median Survival Time: 13.0 days
[1]; [8]
  Median Survival Time: 15.0 days
[1]; [9]
  Median Survival Time: 17.0 days
[1]; [10]
  Median Survival Time: 17.0 days
[1]; [21]
  response vs control in vivo at 12 mg/kg: 126%
[1]; [11]
  response vs control in vivo at 25 mg/kg: 137%
[1]; [12]
  response vs control in vivo at 50 mg/kg: 158%
[1]; [13]
  response vs control in vivo at 100 mg/kg: 179%
[1]; Mus musculus, P388, ip, 200 mg./kg. i.p., days 1, 5 and 9, efficacy ≥125%, read-out: T/C × 100
  response vs control in vivo at 200 mg/kg: 179%
[3]; [16]
  Median Survival Time: 23.0 days
[3]; [19]
  response vs control in vivo at 50 mg/kg: 139%

## CN(C)CCNC1=C2C(=O)c3c(O)ccc(O)c3C(=O)C2=C(NCCN(C)C)CC1 [Leuco-1,4-bis[(2-dimethylaminoethyl)amino]-5,8-dihydroxy-anthraquinone]
[1]; 1.5 mg./kg. i.p., days 1, 5 and 9
  Median Survival Time: 13.0 days
[1]; 3 mg./kg. i.p., days 1, 5 and 9
  Median Survival Time: 14.5 days
[1]; 6 mg./kg. i.p., days 1, 5 and 9
  Median Survival Time: 16.0 days
[1]; [20]
  Median Survival Time: 17.5 days
[1]; [7]
  Median Survival Time: 19.0 days
[1]; [8]
  Median Survival Time: 24.5 days
[1]; [9]
  Median Survival Time: 24.5 days
[1]; Mus musculus, P388, ip, 1.5 mg./kg. i.p., days 1, 5 and 9, efficacy ≥125%, read-out: T/C × 100
  response vs control in vivo at 1.5 mg/kg: 130%
[1]; Mus musculus, P388, ip, 3 mg./kg. i.p., days 1, 5 and 9, efficacy ≥125%, read-out: T/C × 100
  response vs control in vivo at 3 mg/kg: 145%
[1]; Mus musculus, P388, ip, 6 mg./kg. i.p., days 1, 5 and 9, efficacy ≥125%, read-out: T/C × 100
  response vs control in vivo at 6 mg/kg: 160%
[1]; [21]
  response vs control in vivo at 12 mg/kg: 175%
[1]; [11]
  response vs control in vivo at 25 mg/kg: 190%
[1]; [12]
  response vs control in vivo at 50 mg/kg: 245%
[1]; [13]
  response vs control in vivo at 100 mg/kg: 245%
[2]; 12 mg./kg. oral
  Median Survival Time: 12.5 days
  T/C × 100: 125%
[2]; 25 mg./kg. oral
  Median Survival Time: 13.5 days
  T/C × 100: 135%
[2]; 50 mg./kg. oral
  Median Survival Time: 16.0 days
  T/C × 100: 160%
[3]; 3 mg./kg. i.p., days 1 through 9
  Median Survival Time: 21.0 days
[3]; [14]
  Median Survival Time: 21.5 days
[3]; 12 mg./kg. i.p., days 1 through 9
  Median Survival Time: 23.0 days
[3]; [15]
  Median Survival Time: 25.0 days
[3]; Mus musculus, ip, 3 mg./kg. i.p., days 1 through 9, efficacy ≥125%, read-out: T/C × 100
  response vs control in vivo at 3 mg/kg: 127%
[3]; [17]
  response vs control in vivo at 6 mg/kg: 130%
[3]; Mus musculus, ip, 12 mg./kg. i.p., days 1 through 9, efficacy ≥125%, read-out: T/C × 100
  response vs control in vivo at 12 mg/kg: 139%
[3]; [18]
  response vs control in vivo at 25 mg/kg: 151%

## CN(Cc1cnc2nc(N)nc(N)c2n1)c1ccc(C(=O)N[C@@H](CCC(=O)O)C(=O)O)cc1 [Methotrexate]
[4]; 6 mg./kg. i.p.
  % Inhibition Tumor Growth: 36%
  % Showing 50% Tumor Regression: 0%
  No. Without Tumors/No. Survivors: 0/4
  Tumor: 758 (mm.) 2
  Median Survival: 46 days
[4]; 12 mg./kg. i.p.
  % Inhibition Tumor Growth: 23%
  % Showing 50% Tumor Regression: 0%
  No. Without Tumors/No. Survivors: 0/5
  Tumor: 916 (mm.) 2
  Median Survival: 49 days
[4]; 25 mg./kg. i.p.
  % Inhibition Tumor Growth: 54%
  % Showing 50% Tumor Regression: 12%
  No. Without Tumors/No. Survivors: 1/6
  Tumor: 546 (mm.) 2
  Median Survival: 52.5 days
  T/C: 118%

## CC[C@]1(O)C[C@H]2CN(CCc3c([nH]c4ccccc34)[C@@](C(=O)OC)(c3cc4c(cc3OC)N(C=O)[C@H]3[C@@](O)(C(=O)OC)[C@H](OC(C)=O)[C@]5(CC)C=CCN6CC[C@]43[C@@H]65)C2)C1 [Vincristine]
[4]; 0.5 mg./kg. i.p.
  % Inhibition Tumor Growth: 93%
  % Showing 50% Tumor Regression: 57%
  No. Without Tumors/No. Survivors: 4/7
  Tumor: 77 (mm.) 2
  Median Survival: 83 days
  T/C: 186%
[4]; 1.0 mg./kg. i.p.
  % Inhibition Tumor Growth: 100%
  % Showing 50% Tumor Regression: 100%
  No. Without Tumors/No. Survivors: 6/6
  Tumor: 0 (mm.) 2
  Median Survival: 85 days
  T/C: 191%
[4]; 1.5 mg./kg. i.p.
  % Inhibition Tumor Growth: 100%
  % Showing 50% Tumor Regression: 100%
  No. Without Tumors/No. Survivors: 4/4
  Tumor: 0 (mm.) 2
  Median Survival: 68 days
  T/C: 153%
